# Laboratory results taken from a melting point compilation (Tetko et al.; mined from patent text by program, amines drawn as free bases though some values may be those of a salt).
row,melting point [°C],SMILES
1,101 to 104,CCC(C)C=C(C(=O)c1ccc(Cl)cc1Cl)n1cncn1 (stereo not drawn)
2,176 to 178,Cc1noc(NS(=O)(=O)c2cccc3cccnc23)c1C
3,189 to 190,CC(=O)c1cccc(C2=C(c3ccc(S(C)(=O)=O)cc3)OC(C)(C)C2=O)c1
4,125 to 126,C=CCn1c(C)c(C)c2cnnc(OCc3ccc(F)cc3)c21
5,155 to 157,Cn1ncnc1COc1nn2c(-c3ccccc3Cl)nncc2c1-c1ccccc1F
6,166 to 167,CS(=O)(=O)c1ccc(-c2cnn(-c3ccc(F)cc3)c(=O)c2OCC2CC2)cc1
7,215,CS(=O)c1cc(O)ccc1-c1nc2cnccc2[nH]1 (stereo not drawn)
8,59 to 62,COc1ccc(CCc2ccccn2)cc1OCCCCCc1ccccc1
9,101 to 103,CCOC(=O)N(O)Cc1cccc(Nc2ccccc2C(=O)OC)c1C
10,164 to 165,Cn1ncnc1COc1nn2c(-c3ccccc3F)nncc2c1-c1cc(F)ccc1F
11,96 to 97,Cc1nnc(-c2ccc3occ(-c4ccc(SC(C)C)cc4)c3c2)o1
12,> 250,NC(=O)Cn1c(-c2ccc(Br)o2)nc2cccnc21
13,150 to 152,CSc1ccc(C2NC(C(=O)O)C(C)(C)S2)cc1 (stereo not drawn)
14,172 to 174,CCOCc1nc2c(N)nc(C)c(C)c2n1CCNC(=O)C(C)C
15,175 to 178,CCCNC(=O)c1nc(C)ccc1C(=O)Nc1cccc2ccccc12
16,160,CCOC(=O)COc1cc2c(c(Cl)c1Cl)C(=O)C(c1ccc(Cl)cc1)C2 (stereo not drawn)
17,162,Cc1c(C)c(C=O)c2ncccc2c1C
18,94.5 to 95.5,CSCCN(c1ccc(Cl)cc1[N+](=O)[O-])S(=O)(=O)c1ccc(C)cc1
19,157 to 158,COC(CCCNc1ccc(-c2nc(=O)c3ccccc3s2)cn1)OC
20,137 to 138,CCc1nc2c(ccc3nc(C)c(C)nc32)cc1C
21,143 to 145,CC(C)NCC(O)COc1cccc2c1CCCC(=O)N2 (stereo not drawn)

row,melting point [°C],SMILES
1,145 to 150,O=C(O)c1cc2cc(Cl)ccc2nc1N[C@@H](Cc1ccc(Oc2ccc(Br)cn2)cc1)C(=O)O
2,205 to 206,Cn1cnc(COc2nn3c(-c4ccccc4)nnc3cc2N2CCOCC2)n1
3,54 to 55,CCSc1ccc2c(c1)C(=O)Cc1ccccc1N2C
4,149 to 151,Oc1ccc(-c2ncnc(C(F)(F)F)c2Cl)cc1
5,185,O=C1NC(=Cc2cccc(Cl)c2)C(=O)C1=NO
6,127 to 129,"CN(Cc1cc2c(=O)c(C(=O)NCc3ccc(Cl)cc3)cn(C)c2o1)CC(O)c1ncccn1 (single isomer, unassigned; (+))"
7,155 to 157,COc1ccnc(CSc2nc3cc4c(cc3[nH]2)OCO4)c1OC
8,88 to 89,Cc1c2c(c(CCC=O)c(C(C)C)c1OCc1ccccc1)OC(C)(C)C2
9,135 to 137,CN(c1ccccc1)c1ncnc2cc(C(F)(F)F)ccc12
10,116 to 118,Cc1ccc(C(=O)O)c(OCc2ccc(OCCc3nc(-c4ccccc4)oc3C)cc2)c1
11,169,CC(=O)c1ccc(C(=O)NCC(=O)NCC(F)(F)F)c2ccccc12
12,136 to 137,CC(C)c1nc(-c2ccccc2)c(F)c(-c2ccc(F)cc2)c1C=O
13,194 to 197,O=c1[nH]c2ncc(-c3ccc(-c4nnc[nH]4)cc3)nc2n1CCN1CCCCC1
14,> 300,CCc1nnc2c(O)nc3cc(F)ccc3n12
15,158 to 159,CC(C)c1nc(C(C)C)c(CCc2ccccc2)c(-c2ccc(F)cc2)c1CO
16,229 to 231,c1ccc2c(c1)Nc1cc(-c3csc(CN4CCSCC4)n3)ccc1S2
17,177,CC(=O)Oc1ccccc1-c1nn2cc(-c3ccccc3)nc2s1
18,128 to 131,Cc1c(C(=O)O)oc2ccc(OCCNC[C@@H](O)c3csc(C(F)(F)F)n3)cc12
19,150,COc1ccc(-c2ccc(S(=O)(=O)NCc3ccccn3)nc2)cc1
20,177 to 179,CC(=O)c1ccc(NCc2cc3c(cc2O)CCCO3)cc1

# Second part, the compound before the results:
row,SMILES,melting point [°C]
1,CN(Cc1ccccc1)Cc1c(-c2ccc(NC(=O)NO)cc2)sc2c1c(=O)n(-c1ccccc1)c(=O)n2Cc1c(F)cccc1F,164 to 165
2,C=CCc1cc(C(C)=O)c(O)cc1OCCCCCC(=O)OC,64 to 65
3,CN1Cc2c(I)ncn2-c2ccc(F)c(Cl)c2C1=O,218 to 219
4,NS(=O)(=O)c1ccc(CCCNCC(O)c2ccccc2)cc1 (stereo not drawn),165 to 166
5,C#CCN(c1ccc(C(=O)NC(CCCCC(=O)O)C(=O)O)cc1)C1CCc2cc3nc(C)[nH]c(=O)c3cc21 (mixture of isomers),165
6,COC(=O)c1cc2cc(OC)c(OC)cc2c(-c2ccnc(-n3c(=O)ccc4ccccc43)c2)c1C(=O)OC,> 230
7,Cn1c(C(F)(F)F)cc2ccccc21,28 to 32
8,O=[N+]([O-])c1ccc(NC2CC2)cc1,126 to 128
9,CCN(c1ccc(C(=O)Nc2cn3cc(Cl)ccc3n2)cc1)S(C)(=O)=O,245 to 247
10,CSC1C(=O)CC2C3CCC4=CC(=O)C=CC4(C)C3(F)C(OC(C)=O)CC12C (stereo not drawn),235 to 237
11,O=C(Nc1ccccc1)C1=Cc2ccccc2S1(=O)=O,> 220
12,CCC(CCCNC(=O)Nc1cccnc1)NC(=O)Nc1cccnc1 (stereo not drawn),218 to 219
13,CCOCC(=Nc1ccc(Cl)cc1C(F)(F)F)n1ccnc1,49 to 52
14,CN(C)C(=O)c1cc(-c2ccccc2)c(=O)n2c1-c1ccccc1C2,207 to 209
15,O=C(Cn1c2c(c3c4c(ccc31)OCC=C4)CCN(Cc1ccccc1)CC2)Nc1ccccc1,134 to 136
16,CCOC(=O)c1cc(C#N)c(C)nc1N1CCCCC1,72 to 74
17,COC(=O)c1cc(C(=O)O)cc(-c2cc(Cl)ccc2Cl)c1,222 to 224
18,CN1CCC(c2c[nH]c3ccc(NC(=O)c4ccc(C#N)cc4)nc23)CC1,129 to 134
19,CCCCOc1cccc(C[C@H](NC(C)=O)[C@H](O)CNCc2cccc(CC)c2)c1,112 to 114

row,SMILES,melting point [°C]
1,O=C(O)C(=O)c1ccc(OCCCc2ccccc2)cc1,58 to 59
2,CCOC(=O)c1nsc(Br)c1O,44 to 47
3,CCCCCS(=O)(=O)NC(=O)/C=C/c1cc(OC(C)C)nn1Cc1ccc(C(F)(F)F)cc1Cl,139 to 140
4,CC(C)SC(=O)Cc1cc(Oc2ccc(C(F)(F)F)cc2Cl)ccc1[N+](=O)[O-],102 to 104
5,O=C(Nc1cccc2ncccc12)N1CCN2C(=O)OC(c3ccccc3)(c3ccccc3)C2C1 (stereo not drawn),234 to 236
6,[N-]=[N+]=NC[C@H]1CN(c2ccc(Br)cn2)C(=O)O1,64 to 67
7,Cc1ccc2nc(CN3CCN(c4ccc(Cl)cc4C#N)CC3)cn2c1,135 to 136
8,O=C(/C=C/c1cccc(S(=O)(=O)N2CCN(C/C=C/c3ccccc3)CC2)c1)NO,178
9,C#CCOC(=O)CCC(C)(c1ccc(O)cc1)c1ccc(O)cc1,99.5 to 101
10,CC(C)Oc1cc(-n2nc(Cl)n(C(F)F)c2=O)c(Cl)cc1Cl,115 to 119
11,COC(=O)C(C)(C)c1ccc(C(=O)Nc2cn3cc(C)ccc3n2)cc1,228 to 230
12,O=C(NCCCCCCCCn1ccnc1)c1cc2cc(Cl)ccc2[nH]1,187 to 189
13,COc1cc(Nc2c(C#N)cnc3cc(-c4ccc(CN5CCOCC5)o4)ccc23)c(Cl)cc1Cl,182 to 183
14,CCOC(=O)c1[nH]c2cc(Cl)cc(Cl)c2c1NCC(=O)OCCCC(=O)c1ccccc1,139 to 140
15,CC(C(=O)N(C)C)n1cc(I)c(-c2ccccc2)n1 (stereo not drawn),108 to 111
16,CC1=C(n2ccccc2=O)c2cc([N+](=O)[O-])ccc2OC1(C)C,200
17,NC(=O)c1ccc(-c2nn(-c3ccc(C(=O)O)cc3)c3ccc([N+](=O)[O-])cc23)cc1,320 to 322
18,O=C(O)CC1CCCN(C(=O)c2ccc(N3CCCC3)cc2Cl)c2ccccc21 (stereo not drawn),191 to 192
19,N#CCC(=O)NC(C(=O)OC1CCCCC1)c1ccccc1 (stereo not drawn),114 to 116

row,SMILES,melting point [°C]
1,CCOC(=O)c1ccccc1NC(=O)NCC1(c2ccccc2)CCCCC1,99 to 101
2,O=C(Nc1ccc(Br)cc1)c1ccccc1NCc1ccncc1,136 to 137
3,COC(=O)c1ccc(Br)cc1OC(=S)N(C)C,118
4,CC(C)(C)OC(=O)N[C@H](Cc1ccccc1)C(=O)N1CCC[C@H]1C(=O)NC1CCc2n[nH]cc2C1 (stereo partly drawn),108 to 110
5,COC(=O)C(S)CNC(=O)C(=O)NCC(S)C(=O)OC (stereo not drawn),150 to 151
6,OC1(c2ccccn2)CCC2CCCC21 (stereo not drawn),66 to 66.5
7,O=Cc1ccc(-c2ccccc2-c2nnn(C(c3ccccc3)(c3ccccc3)c3ccccc3)n2)cc1,147 to 149
8,Cc1nn(C)c(C2=NCCN2)c1[N+](=O)[O-],143 to 145
9,CCC(C)OC(=O)C(C(=O)O)=C1SCS1 (stereo not drawn),80 to 82
10,COC(=O)c1cc(C(=O)O)ccc1N,224
11,CN1C(=O)CC[C@]2(C)c3ccc(Sc4nc5cccc(Cl)c5s4)cc3CC[C@@H]12,90 to 91
12,Cc1cccc(NC(=O)NC(CC(=O)O)C(=O)N(CC(=O)OC(C)(C)C)c2ccccc2)c1 (racemic),198
13,CC=CC(=O)Nc1cc(C(C)(C)C)c(O)c(C(C)(C)C)c1,211 to 214
14,CC(=O)NC[C@H]1CN(c2ccc(C(=O)c3cnc4cc(-c5ccccc5)ccn34)cc2)C(=O)O1,256 to 258
15,CC(C)=CCn1c(C)cnc1[N+](=O)[O-],78 to 79
16,CC(C)(C)c1nc2cc(CC#N)ccc2s1,50 to 52
17,Cc1[nH]cnc1CSCCNC(=N)NCCCc1c[nH]cn1,128 to 131
18,Cc1cc(-n2ccnc2)c2cccc(OCc3c(Cl)ccc(S(=O)(=O)N4CCC[C@H]4C(=O)NCC4CCN(C(=O)OC(C)(C)C)CC4)c3Cl)c2n1,100
19,CCOCOC(=O)c1c(I)cc(I)c(NC(C)=O)c1I,174 to 178
